Values quoted from earlier work in patent US20070092440A1, “Bone localising radiopharmaceutical and tubulin-interacting compound combinatorial” (priority 2003, published 2007).
Each block holds one molecule with its values, some of them ahead of it.

How the values were obtained:
[1] = tested on: bone pain, osteoblastic metastatic bone lesions; conditions: for treated patients with symptomatic relief of bone pain: in vivo
[2] = in bone
[3] = in vivo
[4] = supplied frozen
[5] = tested on: leukocyte and platelet counts; conditions: 1.0 mCi/kg
[6] = repeated dosing with 1.0 mCi/kg
[7] = tested on: HRPC patients with bone metastases

Structure (SMILES): [89Sr+2].[Cl-].[Cl-] [strontium 89 chloride]
treated patients with symptomatic relief of bone pain [1]: approximately 80%

Structure (SMILES): O=P([O-])(O)CN(CCN(CP(=O)([O-])O)CP(=O)(O)O)CP(=O)([O-])O.[153Sm+3] [samarium Sm 153 lexidronam]
range of emission [2]: 1.7 mm
time in which the majority of excretion occurs (after administration): ≤ 8 h
time to complete excretion (after administration): ≤ 12 h
clearance route (in vivo): exclusively renal
uptake by nonosseous tissue (in vivo): no significant uptake
myelosuppression [3]: Myelosuppression has been observed
patients with pain relief at Week 4 who still had pain relief at Week 16 ([1]; 1.0 mCi/kg dose group): two-thirds
treated patients with symptomatic relief of bone pain [1]: approximately 80%
drug product expiry after the time of calibration [4]: 48 h
median time of nadir of leukocyte and platelet counts [5]: 4 weeks
patients with Grade 3/4 haematologic toxicity [5]: < 10%
time by which recovery of counts is generally complete [5]: 5-8 weeks
cumulative toxicity on repeated dosing [6]: not associated with cumulative toxicity

myelosuppression [3]: Myelosuppression has been observed
Structure (SMILES): CC(=O)O[C@@]12CO[C@@H]1C[C@H](O)[C@@]1(C)C(=O)[C@H](O)C3=C(C)[C@@H](OC(=O)[C@H](O)[C@@H](NC(=O)OC(C)(C)C)c4ccccc4)C[C@@](O)([C@@H](OC(=O)c4ccccc4)[C@H]21)C3(C)C [docetaxel]

Structure (SMILES): COc1cccc2c1C(=O)c1c(O)c3c(c(O)c1C2=O)C[C@@](O)(C(=O)CO)C[C@@H]3O[C@H]1C[C@H](N)[C@H](O)[C@H](C)O1 [doxorubicin]
overall survival ([7]; 72 HRPC patients with bone metastases, randomized): 16.8 months
incidence of Grade 3/4 neutropenia ([7]; in vivo): 22%
